The values below are quoted from earlier work in patent US11230553B2, “Nannocystin process and products” (THE RESEARCH FOUNDATION FOR THE STATE UNIVERSITY OF NEW YORK, priority 2016, dated 2022).

For one data set, the system named is HCT116. The settings on record: HCT116 cancer cell line; read-out: IC50 against HCT116.
A further data set relates to PC3. Particulars: PC3 cancer cell line; read-out: IC50 against PC3.
The subject of the next data set is HL60. The settings on record: HL60 cancer cell line; read-out: IC50 against HL60.

For `CC[C@H](C)[C@H]1C(=O)N[C@H](Cc2cc(Cl)c(O)c(Cl)c2)C(=O)N[C@@H](C(C)(C)O)C(=O)O[C@H](c2ccccc2)[C@H](C)/C=C/C=C(\C)[C@H](OC)C[C@@H]2O[C@@]2(C)C(=O)N1C` [nannocystin A, (1), (1R,4S,7R,10S,13S,14R,15E,17E,19R,21S)-4-((S)-sec-butyl)-7-(3,5-dichloro-4-hydroxybenzyl)-10-(2-hydroxypropan-2-yl)-19-methoxy-1,3,14,18-tetramethyl-13-phenyl-12,22-dioxa-3,6,9-triazabicyclo[19.1.0]docosa-15,17-diene-2,5,8,11-tetraone], the IC50 with HCT116 was 1.2 nM; in the data set with PC3, 1 nM; in the data set on HL60 it was 12 nM. Besides, the “anti-proliferative properties against 472 cancer cell lines” value with 472 cancer cell lines is “nanomolar concentration range”.

As usually defined, the IC50 is the concentration at which inhibition is half-maximal.
